Columns and labels:
phospho-STAT protein = assay: Phospho-STAT levels by FACS after miR-1290 mimic transfection; format: cell-based; settings: NALM-6 cell line transfected
Experimental: Phosphorylated STAT (phospho-STAT, activated by JAK) levels were measured by FACS analysis following transfection of miR-1290 mimic (overexpression) into NALM-6 cell line. An increase of 50% in the levels of phospho-STAT protein was evident in the cells expressing high levels of miR-1290 (FIG. 11).

Nalm-6 cells [1] = assay: Annexin V-FITC apoptosis assay in Nalm-6 cells; format: cell-based; settings: 1 nM for 48 hours, Nalm-6 cells, FACS
Excerpt: Cells were stained with annexin V-fluorescein-5-isothiocyanate (FITC) conjugated antibody and propidium iodide (PI) using the Annexin V-FITC Apoptosis Detection Kit (ab14085, Abcam® Incorporated, Cambridge, Mass., USA) according to manufacturer's instructions (see, for example, https://www.abcam.com/ps/products/14/ab14085/documents/ab14085%20Annexin %20V%20FITC%20Apoptosis%20Detection%20Kit%20v4%20(website).pdf), and read on the flow cytometer. Annexin V Apoptosis Detection Kit is based on the observation that soon after initiating apoptosis, cells translocate the membrane phosphatidylserine (PS) from the inner face of the plasma membrane to the cell surface. Once on the cell surface, PS can be easily detected by staining with a fluorescent conjugate (e.g., FITC) of Annexin V, a protein that has a high affinity for PS. The one-step staining procedure takes only 10 minutes. When performing both Annexin V-FITC and PI staining, it is possible to differentiate apoptosis vs necrosis.
(§1) To measure the effect of NAD^+ depletion following FK866 treatment of Nalm-6 cells, apoptosis and viability were measured as described in Materials and Methods. Nalm-6 cells were treated for 48 hours with 1 nM FK866, and then apoptosis was measured using FACS.

Nalm-6 cells [2] = assay: XTT cell viability assay in Nalm-6 cells; format: cell-based; settings: 1 nM for 48 hours, Nalm-6 cells, XTT
Experimental: Cell viability assay was performed using the Cell Proliferation Kit comprising the second-generation tetrazolium dye, XTT. Viable cells with active metabolism convert XTT into an orange colored reduction product, whereas dead cells lose the ability to reduce XTT, thus, color formation serves as a useful and convenient marker of only the viable cells.
The XTT kit was applied to NALM6 transfected cells according to the manufacturer's protocol (Biological Industries, Kibbutz Beit Haemek, Israel). Cells were incubated for 3 hours with the XTT reagent and quantity of reduced XTT (directly proportional to the number of viable cells) was assessed by recording changes in absorbance as measured on a microplate reader at 450-500 nm optical density (OD).
as §1

ALL NALM-6 cells = assay: FK866 in ALL xenograft mouse model; format: in vivo, NSG™ mice
Experimental: Ten million ALL NALM-6 cells in 100 μl saline were injected subcutaneously, above the femur, to 6-8 weeks-old NSG™ mice (NSG™ mouse model variants are the most highly immunodeficient mice and therefore were chosen as models for cancer xenograft modelling). Tumors were clinically evident 15-28 days following injection in more than 85% of the mice (n=175). Mice were divided into groups receiving either FK866 or vehicle treatment. Mice in the treatment group received FK866 in 0.9% saline intraperitoneally at a dose of 15 mg/Kg daily for 5 days. Vehicle in the control group was injected intraperitoneally once a day for 5 days repeated weekly. The volume of tumors was measured daily until mice were sacrificed. Tumor volume was monitored using vernier caliper measurements and calculated using the formula π(length)(width)^2/6. Each experiment was ended when tumor size reached 12×12 mm^3. All animal experiments were performed under an approved animal study protocol.
Following the in vitro studies described in Example 4 herein, the sensitivity of ALL tumor growth to a NAMPT inhibitor was tested in-vivo in an ALL xenograft mouse model. The NAMPT inhibitor tested was the known small molecule FK866. The effect of FK866 was tested in the ALL xenograft mouse model in 4 independent experiments each performed on a group of 82 NSG™ mice as follows: 41 mice were treated with FK866 (15 mg/kg) once a day for 5 days repeated weekly, and 41 mice served as controls (i.e., were not treated with FK866 and received saline instead).
Mice were treated from the day tumors were clinically evident in all mice (day 25), and tumors volume was measured daily.

NALM-6/miR-451 mimic = assay: FK866 in xenograft of NALM-6/miR-451 mimic stable line; format: in vivo, NSG™ mice
Experimental: (§2) miR-451 precursor and antagomiR-451 expression clones were obtained from GeneCopoeia™ (GeneCopoeia, Rockville, Md., USA). Stable cell lines were prepared by the Tel Aviv University's Vector Core Facility by transduction of ALL cell line (NALM-6) with lentiviral particles co-encoding miR-451 precursor or antagomiR-451, the ORF for EGFP/mCherry and puromycin-resistance, under the control of individual CMV promoters. The ORFs and the miR-451 precursor/antagomiR-451 oligonucleotide sequences were incorporated into the pLL3.7 3rd generation lentiviral vector. […]
(§3) Ten million ALL NALM-6 cells in 100 μl saline were injected subcutaneously, above the femur, to 6-8 weeks-old NSG™ mice (NSG™ mouse model variants are the most highly immunodeficient mice and therefore were chosen as models for cancer xenograft modelling). […] The volume of tumors was measured daily until mice were sacrificed. Tumor volume was monitored using vernier caliper measurements and calculated using the formula π(length)(width)^2/6. […]
(§4) In order to assess a possible association or correlation between miR-451 expression levels and sensitivity to in-vivo treatment of ALL with a NAMPT inhibitor, the effect of the NAMPT inhibitor FK866 was assessed in the presence of elevated levels or lowered levels of miR-451 in ALL xenograft mouse model. […] Tumors volume was measured daily.

[3] = test system: NAD^+ formation in Nalm-6 cell line; assay: NAD^+/NADH assay in Nalm-6 cells treated with FK866; format: cell-based
Experimental: (§5) The NAD^+/NADH ratio was measured in whole-cell extracts of NALM-6 cells using the Biovision NAD^+/NADH Quantification Colorimetric™ Kit (BioVision, San Francisco, Calif., USA) (also referred to herein as “NAD assay”) according to the manufacturer's protocol (see, for example, https://www.biovision.com/documentation/datasheets/K337.pdf). The NAD Cycling Enzyme Mix in the kit specifically recognizes NADH/NAD^+ in an enzyme cycling reaction. After 4 hrs, the plate was read at optical density (OD) 450 nm. The readings were normalized to the cell number and the NAD^+/NADH ratio was calculated as: (total NAD^+−NADH)/NADH.
Nalm-6 cells were treated for 1, 3, and 6 hours with 1 nM FK866 (Sigma) and NAD^+ formation was measured using NAD assay as described in Materials and Methods.
The sensitivity of NALM-6 cells to the NAMPT inhibitor FK866 was measured in cells following transfection with miR-451 mimic (SEQ ID NO: 2), miR-451 inhibitor (miArrest™ miR-451 expression clone; GeneCopoeia™), or scrambled miR. Sensitivity was assessed by measuring the levels of NAD^+. […] Thus, miR-451 expression can distinguish between patients that could benefit from treatment with NAMPT inhibitors such as FK866.

NALM-6/antagomiR-451 = assay: FK866 in xenograft of NALM-6/antagomiR-451 stable line; format: in vivo, NSG™ mice
Experimental: as §2, §3, §4

[4] = Phase I, patients with advanced cancers; cited from earlier work
NAMPT = NAMPT expression after TPA treatment; format: cell-based; settings: 50 ng/ml for 24 hours, human peripheral blood cells, FACS
Experimental: Studies by several investigators have shown that 12-0-tetradecanoylphorbol-13-acetate (TPA) (Sigma) is an extraordinarily potent tumor promoter and stimulates protein kinase C (PKC). Since NAMPT is over-expressed in several tumors, it was believed that it might be possible to achieve NAMPT stimulation by TPA treatment. To test this hypothesis, human peripheral blood cells were treated with 50 ng/ml TPA for 24 hours, and NAMPT expression was measured by FACS using a specific NAMPT antibody.

NAD^+ levels = assay: NAD assay in TPA stimulated cells; format: cell-based, human
Experimental: as §5
NAMPT is the rate-limiting enzyme in the NAD^+ biosynthetic pathway. Thus, NAD^+ levels in the stimulated cells were measured using a standard NAD assay (BioVision NADH/NAD^+ Quantification Colorimetric™ Kit).

miR-1290 mimic: synthetic miR-1290 mimic, SEQ ID NO:4, for over-expression of miR-1290 (UGGAUUUUUGGAUCACCUGAUCCAAAAAU; listed as RNA, chemistry not given here)
increase in the levels of phospho-STAT protein (phospho-STAT protein): 50%

O=C(/C=C/c1cccnc1)NCCCCC1CCN(C(=O)c2ccccc2)CC1 [FK866]
apoptosis level (Nalm-6 cells [1]): significantly increased apoptosis level | cell viability (Nalm-6 cells [2]): significant decrease in cell viability | mean tumor volume at the end of experiment (ALL NALM-6 cells; 15 mg/kg daily, day 32): 300.36±63.67 mm^3 | tumor growth increase (ALL NALM-6 cells; 15 mg/kg daily, day 32 vs day 25): less than 150% | volume change treated vs non-treated group (ALL NALM-6 cells; within 4 days of treatment (day 29)): tumor growth inhibition | tumor growth/volume change treated vs untreated (NALM-6/miR-451 mimic; NALM-6/miR-451 mimic mice): Only a moderate difference in tumor growth/volume change | mean tumor volume at the end of experiments (NALM-6/miR-451 mimic; miR-451 mimic group, FK866 15 mg/kg): 544±64 mm^3 | NAD^+ detection following treatment ([3]; 1 nM for 1, 3 and 6 hours, Nalm-6 cells): gradual decrease in NAD^+ detection | change in NAD^+ production after FK866 treatment compared to control ([3]; Nalm-6/miR-451 inhibitor cells): more than 5 fold | change in NAD^+ production after FK866 treatment compared to control ([3]; Nalm-6/miR-451 mimic cells): less change in NAD^+ production | tumor growth/volume change treated vs un-treated (NALM-6/antagomiR-451; NALM-6/antagomiR-451 mice): significant difference in tumor growth/volume change | mean tumor volume at the end of experiments (NALM-6/antagomiR-451; antagomiR-451 group, FK866 15 mg/kg): 117±81 mm^3 | tolerability and safety [4]: well tolerated and safe

CCCCCCCCCCCCCC(=O)O[C@@H]1[C@@H](C)[C@@]2(O)[C@@H](C=C(CO)C[C@]3(O)C(=O)C(C)=C[C@@H]23)[C@@H]2C(C)(C)[C@]12OC(C)=O [TPA, 12-O-tetradecanoylphorbol-13-acetate]
increase in NAMPT expression levels (NAMPT): more than 4 folds | cellular NAD^+ levels, fold higher (NAD^+ levels): 2 fold
